# Results from patent US20250163066A1, “PROTACs of MALT1” (TEGID THERAPEUTICS, INC., priority 2022, published 2025).
# Target: MALT1 (Homo sapiens (Human), UniProt Q9UDY8)
# Test: MALT1 enzymatic activity inhibition (fluorescence, Ac-LRSR-AMC substrate)
# Type: biochemical
# Conditions: recombinant MALT1 1.5 ng/μl, Ac-LRSR-AMC 1 μM
# Experimental: Compound activity was determined using recombinant MALT1 protein (Creative Biomart, Cat #MALT1-28H) and Ac-LRSR-AMC Substrate in an in vitro enzymatic reaction. The enzymatic assay used to determine activity was a Fluorescence assay using a Microplate Reader ClarioStar Plus. The enzymatic reaction was carried out in 1× Assay Buffer (50 mM HEPES pH 7.2-7.4, 100 mM NaCl, 900 mM Sodium citrate, 10 mM DTT). The compounds were dispensed on a 384-well Diamond Well Plate (Axygen, Cat #P-384-120SQ-C—S) using the Biomek FX liquid handling system at 100× solutions of compounds in DMSO. 2.5×MALT1 mix (final concentration 1.5 ng/μl of MALT1) was prepared in 1× Assay Buffer and 8 μl of mixture per well were added into 384w white Reaction Plates with NBS (Corning, Cat #4513). 8 μl of 1× Assay Buffer were used for negative control. Plates were centrifuged for 1 min at 200 g. Next, the compounds were added to Reaction plates using Biomek station via following steps: 1 μl of 100× compounds (in DMSO) was mixed thoroughly with 19 μl of 1× Assay Buffer, then 4 μl of this mixture were added to Reaction plates with 8 μl of MALT1 mix. Plates were centrifuged for 1 min at 200 g and incubated for 10 minutes at rt. Next, 2.5× Ac-LRSR-AMC mix (final concentration 1 μM of Ac-LRSR-AMC) was prepared in 1× Assay Buffer and 8 μl of mixture per well were added to Reaction Plates using Biomek station. Plates were centrifuged for 1 min at 200 g, then the fluorescence was measured immediately using Microplate Reader. Plates were incubated for 30 minutes at 37° C., then for 30 minutes at rt. The fluorescence was measured after the whole incubation using Microplate Reader. The reaction signal was calculated as the subtraction of the first data set values from the second. The % inhibition was then used to calculate the IC50 values. The results of this assay are shown in the Table A. The values of EC50 shown as a letters A-E, where: A≤0.2 μM; 0.2 μM<B≤0.5 μM; 0.5 μM<C≤1 μM; 1<D≤5 μM; E >5.
# Sequence of MALT1 (Q9UDY8 whole entry): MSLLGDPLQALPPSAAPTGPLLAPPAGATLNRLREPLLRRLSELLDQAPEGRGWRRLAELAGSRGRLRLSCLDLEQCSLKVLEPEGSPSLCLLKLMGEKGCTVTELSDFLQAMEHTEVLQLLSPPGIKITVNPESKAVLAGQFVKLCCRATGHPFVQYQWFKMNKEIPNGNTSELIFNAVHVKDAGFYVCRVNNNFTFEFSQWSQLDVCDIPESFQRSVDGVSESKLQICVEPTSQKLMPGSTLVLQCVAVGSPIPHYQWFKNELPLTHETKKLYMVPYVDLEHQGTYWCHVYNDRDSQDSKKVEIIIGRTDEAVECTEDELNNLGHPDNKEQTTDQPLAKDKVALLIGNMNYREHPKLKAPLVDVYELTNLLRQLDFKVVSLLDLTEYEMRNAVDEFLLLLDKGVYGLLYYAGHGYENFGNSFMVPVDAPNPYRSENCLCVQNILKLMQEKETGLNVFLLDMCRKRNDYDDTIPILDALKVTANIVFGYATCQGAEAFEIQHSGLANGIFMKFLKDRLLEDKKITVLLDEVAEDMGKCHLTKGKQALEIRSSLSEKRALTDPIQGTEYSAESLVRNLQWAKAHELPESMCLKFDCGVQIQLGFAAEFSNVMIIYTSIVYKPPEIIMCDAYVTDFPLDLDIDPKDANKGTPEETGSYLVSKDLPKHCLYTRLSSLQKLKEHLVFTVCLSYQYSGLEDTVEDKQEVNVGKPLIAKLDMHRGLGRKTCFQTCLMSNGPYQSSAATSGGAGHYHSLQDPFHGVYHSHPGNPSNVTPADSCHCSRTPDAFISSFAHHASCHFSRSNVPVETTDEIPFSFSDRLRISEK
row,Compound,EC50 [µM]
1,"COc1cc(-c2c(NC(=O)Nc3cnc(-c4noc(CNC(=O)CCOCCN5CCN(c6ccc7c(c6)CN(C6CCC(=O)NC6=O)C7=O)CC5)n4)c(C)c3)cnc3ccnn23)cc(OC)c1OC (centres unmarked) [Compound 1, 3-(2-{4-[2-(2,6-Dioxopiperidin-3-yl)-1-oxo-2,3-dihydro-1H-isoindol-5-yl]piperazin-1-yl}ethoxy)-N-[(3-{3-methyl-5-[({[7-(3,4,5-trimethoxyphenyl)pyrazolo[1,5-a]pyrimidin-6-yl]amino}carbonyl)amino]pyridin-2-yl}-1,2,4-oxadiazol-5-yl)methyl]propenamide]",> 5
2,"Cc1cc(NC(=O)Nc2cnc3ccnn3c2C2CCCC2)cnc1-c1noc(CCCCCC(=O)N2CCN(c3ccc4c(c3)CN(C3CCC(=O)NC3=O)C4=O)CC2)n1 (centres unmarked) [Compound 4, 1-(7-cyclopentylpyrazolo[1,5-a]pyrimidin-6-yl)-3-[6-[5-[6-[4-[2-(2,6-dioxo-3-piperidyl)-1-oxo-isoindolin-5-yl]piperazin-1-yl]-6-oxo-hexyl]-1,2,4-oxadiazol-3-yl]-5-methyl-3-pyridyl]urea]",0.2 to 0.5
3,"Cc1cc(NC(=O)Nc2cnc3ccnn3c2C2CCCC2)cnc1-c1nnc(CCCCCC(=O)N2CCN(c3ccc4c(c3)CN(C3CCC(=O)NC3=O)C4=O)CC2)o1 (centres unmarked) [Compound 5, 1-(7-cyclopentylpyrazolo[1,5-a]pyrimidin-6-yl)-3-[6-[5-[6-[4-[2-(2,6-dioxo-3-piperidyl)-1-oxo-isoindolin-5-yl]piperazin-1-yl]-6-oxo-hexyl]-1,3,4-oxadiazol-2-yl]-5-methyl-3-pyridyl]urea]",≤ 0.2
4,"Cc1cc(NC(=O)Nc2cnc3ccnn3c2C2CCCC2)cnc1-c1cn(CCCCCCC(=O)N2CCN(c3ccc4c(c3)CN(C3CCC(=O)NC3=O)C4=O)CC2)nn1 (centres unmarked) [Compound 6, 1-(7-cyclopentylpyrazolo[1,5-a]pyrimidin-6-yl)-3-[6-[1-[7-[4-[2-(2,6-dioxo-3-piperidyl)-1-oxo-isoindolin-5-yl]piperazin-1-yl]-7-oxo-heptyl]triazol-4-yl]-5-methyl-3-pyridyl]urea]",0.5 to 1
5,"Cc1cc(NC(=O)Nc2cnc3ccnn3c2C2CCCC2)cnc1-c1cn(CCCCOCC(=O)N2CCN(c3ccc4c(c3)CN(C3CCC(=O)NC3=O)C4=O)CC2)nn1 (centres unmarked) [Compound 8, 1-(7-cyclopentylpyrazolo[1,5-a]pyrimidin-6-yl)-3-[6-[1-[4-[2-[4-[2-(2,6-dioxo-3-piperidyl)-1-oxo-isoindolin-5-yl]piperazin-1-yl]-2-oxo-ethoxy]butyl]triazol-4-yl]-5-methyl-3-pyridyl]urea]",1 to 5
6,"Cc1cc(NC(=O)Nc2cnc3nccn3c2C2CCCC2)cnc1-c1noc(CCCCCC(=O)N2CCN(c3ccc4c(c3)CN(C3CCC(=O)NC3=O)C4=O)CC2)n1 (centres unmarked) [Compound 9, 1-(5-cyclopentylimidazo[1,2-a]pyrimidin-6-yl)-3-[6-[5-[6-[4-[2-(2,6-dioxo-3-piperidyl)-1-oxo-isoindolin-5-yl]piperazin-1-yl]-6-oxo-hexyl]-1,2,4-oxadiazol-3-yl]-5-methyl-3-pyridyl]urea]",> 5
7,"Cc1cc(NC(=O)Nc2cnc3ccnn3c2C2CCCC2)cnc1-c1noc(COCCCCN2CCN(c3ccc4c(c3)CN(C3CCC(=O)NC3=O)C4=O)CC2)n1 (centres unmarked) [Compound 11, 1-(7-cyclopentylpyrazolo[1,5-a]pyrimidin-6-yl)-3-[6-[5-[4-[4-[2-(2,6-dioxo-3-piperidyl)-1-oxo-isoindolin-5-yl]piperazin-1-yl]butoxymethyl]-1,2,4-oxadiazol-3-yl]-5-methyl-3-pyridyl]urea]",0.2 to 0.5
8,"Cc1cc(NC(=O)Nc2cnc3c(Cl)cnn3c2C2CCCC2)cnc1-c1noc(CCCN2CCN(c3ccc4c(c3)CN(C3CCC(=O)NC3=O)C4=O)CC2)n1 (centres unmarked) [Compound 19, 1-(3-chloro-7-cyclopentyl-pyrazolo[1,5-a]pyrimidin-6-yl)-3-[6-[5-[3-[4-[2-(2,6-dioxo-3-piperidyl)-1-oxo-isoindolin-5-yl]piperazin-1-yl]propyl]-1,2,4-oxadiazol-3-yl]-5-methyl-3-pyridyl]urea]",1 to 5
9,"Cc1cc(NC(=O)Nc2cnc3c(Cl)cnn3c2C2CCCC2)cnc1-c1noc(CCCCN2CCN(c3ccc4c(c3)CN(C3CCC(=O)NC3=O)C4=O)CC2)n1 (centres unmarked) [Compound 20, 1-(3-chloro-7-cyclopentyl-pyrazolo[1,5-a]pyrimidin-6-yl)-3-[6-[5-[4-[4-[2-(2,6-dioxo-3-piperidyl)-1-oxo-isoindolin-5-yl]piperazin-1-yl]butyl]-1,2,4-oxadiazol-3-yl]-5-methyl-3-pyridyl]urea]",1 to 5
10,"Cc1cc(NC(=O)Nc2cnc3ccnn3c2C2CCCC2)cnc1-c1noc(CCCCN2CCN(c3ccc4c(c3)CN(C3CCC(=O)NC3=O)C4=O)CC2)n1 (centres unmarked) [Compound 21, 1-(7-cyclopentylpyrazolo[1,5-a]pyrimidin-6-yl)-3-[6-[5-[4-[4-[2-(2,6-dioxo-3-piperidyl)-1-oxo-isoindolin-5-yl]piperazin-1-yl]butyl]-1,2,4-oxadiazol-3-yl]-5-methyl-3-pyridyl]urea]",≤ 0.2
11,"O=C1CCC(N2Cc3cc(N4CCN(CCCCc5nc(-c6ncc(NC(=O)Nc7cnc8c(Cl)cnn8c7C7CCCC7)cc6Cl)no5)CC4)ccc3C2=O)C(=O)N1 (centres unmarked) [Compound 22, N-(3-Chloro-7-cyclopentylpyrazolo[1,5-a]pyrimidin-6-yl)-N′-{5-chloro-6-[5-(4-{4-[2-(2,6-dioxopiperidin-3-yl)-1-oxo-2,3-dihydro-1H-isoindol-5-yl]piperazin-1-yl}butyl)-1,2,4-oxadiazol-3-yl]pyridin-3-yl}urea]",1 to 5
12,"Cc1cc(NC(=O)Nc2cnc3c(Cl)cnn3c2C2CCCC2)cnc1-c1noc(CCCN2CCN(c3cc4c(cc3F)C(=O)N(C3CCC(=O)NC3=O)C4=O)CC2)n1 (centres unmarked) [Compound 24, 1-(3-chloro-7-cyclopentyl-pyrazolo[1,5-a]pyrimidin-6-yl)-3-[6-[5-[3-[4-[2-(2,6-dioxo-3-piperidyl)-6-fluoro-1,3-dioxo-isoindolin-5-yl]piperazin-1-yl]propyl]-1,2,4-oxadiazol-3-yl]-5-methyl-3-pyridyl]urea]",1 to 5
13,"CO[C@@H](C)c1c(NC(=O)Nc2cc(Cl)cnc2OCCNC(=O)CCOCCN2CCN(c3ccc4c(c3)CN(C3CCC(=O)NC3=O)C4=O)CC2)cnc2ccnn12 (stereo partly drawn) [Compound 25, N-[2-[[5-chloro-3-[[7-[(1S)-1-methoxyethyl]pyrazolo[1,5-a]pyrimidin-6-yl]carbamoylamino]-2-pyridyl]oxy]ethyl]-3-[2-[4-[2-(2,6-dioxo-3-piperidyl)-1-oxo-isoindolin-5-yl]piperazin-1-yl]ethoxy]propanamide]",0.2 to 0.5
14,"COc1cc(-c2c(NC(=O)Nc3cnc(N4CCN(C(=O)COCC(=O)Nc5cccc6c5C(=O)N(C5CCC(=O)NC5=O)C6=O)CC4)c(C)c3)cnc3ccnn23)cc(OC)c1OC (centres unmarked) [Compound 26, N-[2-(2,6-dioxo-3-piperidyl)-1,3-dioxo-isoindolin-4-yl]-2-[2-[4-[3-methyl-5-[[7-(3,4,5-trimethoxyphenyl)pyrazolo[1,5-a]pyrimidin-6-yl]carbamoylamino]-2-pyridyl]piperazin-1-yl]-2-oxo-ethoxy]acetamide]",> 5
15,"COc1cc(-c2c(NC(=O)Nc3cnc(NCCOCCOCCC(=O)N4CCN(c5ccc6c(c5)CN(C5CCC(=O)NC5=O)C6=O)CC4)c(C)c3)cnc3ccnn23)cc(OC)c1OC (centres unmarked) [Compound 27, 1-[6-[2-[2-[3-[4-[2-(2,6-dioxo-3-piperidyl)-1-oxo-isoindolin-5-yl]piperazin-1-yl]-3-oxo-propoxy]ethoxy]ethylamino]-5-methyl-3-pyridyl]-3-[7-(3,4,5-trimethoxyphenyl)pyrazolo[1,5-a]pyrimidin-6-yl]urea]",> 5
16,"COc1cc(-c2c(NC(=O)Nc3cnc(-n4cc(C(=O)NCCOCCOCCC(=O)N5CCN(c6ccc7c(c6)CN(C6CCC(=O)NC6=O)C7=O)CC5)cn4)c(C)c3)cnc3ccnn23)cc(OC)c1OC (centres unmarked) [Compound 28, N-[2-[2-[3-[4-[2-(2,6-dioxo-3-piperidyl)-1-oxo-isoindolin-5-yl]piperazin-1-yl]-3-oxo-propoxy]ethoxy]ethyl]-1-[3-methyl-5-[[7-(3,4,5-trimethoxyphenyl)pyrazolo[1,5-a]pyrimidin-6-yl]carbamoylamino]-2-pyridyl]pyrazole-4-carboxamide]",> 5
17,"Cc1cc(NC(=O)Nc2cnc3ccnn3c2C2CCCO2)cnc1NCCOCCOCCOCCC(=O)N1CCN(c2ccc3c(c2)CN(C2CCC(=O)NC2=O)C3=O)CC1 (centres unmarked) [Compound 29, 1-[6-[2-[2-[2-[3-[4-[2-(2,6-dioxo-3-piperidyl)-1-oxo-isoindolin-5-yl]piperazin-1-yl]-3-oxo-propoxy]ethoxy]ethoxy]ethylamino]-5-methyl-3-pyridyl]-3-(7-tetrahydrofuran-2-ylpyrazolo[1,5-a]pyrimidin-6-yl)urea]",> 5
